{
  "source": "ChEMBL document CHEMBL4359935",
  "about": "“Selective toxicity of chrysin on mitochondria isolated from liver of a HCC rat model” (Bioorg Med Chem, 2019)",
  "key": {"Rattus norvegicus [1]": {"organism": "Rattus norvegicus", "assay": "Induction of ROS production in HCC model Sprague-Dawley rat hepatocyte mitochondria at 10 to 40 uM incubated upto 60 mins by DCFH probe based fluorescence spectrophotometer", "assay_type": "functional"}, "[2]": {"assay": "Induction of mitochondrial membrane potential disruption in Sprague-Dawley rat hepatocyte assessed as collapsed mitochondrial membrane potential at 10 to 40 uM incubated upto 60 mins by Rhodamine 123 probe based fluorescence spectrophotometry", "conditions": "hepatocytes, 1 h"}, "Rattus norvegicus [3]": {"organism": "Rattus norvegicus", "assay": "Induction of mitochondrial membrane potential disruption in HCC model Sprague-Dawley rat hepatocyte assessed as collapsed mitochondrial membrane potential at 10 to 40 uM incubated upto 60 mins by Rhodamine 123 probe based fluorescence spectrophotometry", "assay_type": "functional"}, "Hepatocyte [4]": {"system": "Hepatocyte", "assay": "Induction of apoptosis in isolated HCC model Sprague-Dawley rat hepatocytes assessed as increase in cytochrome C release at 20 uM by ELISA relative to control", "assay_type": "functional"}, "Hepatocyte [5]": {"system": "Hepatocyte", "assay": "Induction of apoptosis in isolated HCC model Sprague-Dawley rat hepatocytes assessed as increase in cytochrome C release at 20 uM in presence of CsA by ELISA", "assay_type": "functional, cell-based"}, "[6]": {"biological_target": "Succinate dehydrogenase [ubiquinone] flavoprotein subunit, mitochondrial (Rattus norvegicus) (UniProt Q920L2)", "sequence (Q920L2 whole entry)": "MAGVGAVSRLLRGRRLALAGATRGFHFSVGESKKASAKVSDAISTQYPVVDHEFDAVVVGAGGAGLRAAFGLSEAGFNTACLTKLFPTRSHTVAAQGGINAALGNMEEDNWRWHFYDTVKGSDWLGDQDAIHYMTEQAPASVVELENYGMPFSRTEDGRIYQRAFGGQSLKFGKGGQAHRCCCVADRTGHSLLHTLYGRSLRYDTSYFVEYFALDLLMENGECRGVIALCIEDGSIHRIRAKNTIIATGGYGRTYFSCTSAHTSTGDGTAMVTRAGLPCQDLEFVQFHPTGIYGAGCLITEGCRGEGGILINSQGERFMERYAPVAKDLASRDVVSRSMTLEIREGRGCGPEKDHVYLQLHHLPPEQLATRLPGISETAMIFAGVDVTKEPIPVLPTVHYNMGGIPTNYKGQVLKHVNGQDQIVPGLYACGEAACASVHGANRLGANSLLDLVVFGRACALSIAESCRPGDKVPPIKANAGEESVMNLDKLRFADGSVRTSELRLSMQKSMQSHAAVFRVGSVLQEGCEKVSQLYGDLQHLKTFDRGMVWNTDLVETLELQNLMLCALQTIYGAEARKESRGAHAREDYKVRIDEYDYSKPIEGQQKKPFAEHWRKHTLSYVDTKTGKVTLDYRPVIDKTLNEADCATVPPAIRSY", "assay": "Inhibition of SDH in HCC model Sprague-Dawley rat hepatocyte mitochondria at 10 to 40 uM incubated for 40 mins by MTT assay"}, "[7]": {"assay": "Effect on SDH activity in Sprague-Dawley rat hepatocyte mitochondria at 10 to 40 uM incubated for 40 mins by MTT assay", "assay_type": "ADME", "conditions": "hepatocytes"}, "[8]": {"assay": "Induction of ROS production in Sprague-Dawley rat hepatocyte mitochondria at 10 to 40 uM incubated upto 60 mins by DCFH probe based fluorescence spectrophotometry", "conditions": "hepatocytes, 1 h"}, "Rattus norvegicus [9]": {"organism": "Rattus norvegicus", "assay": "Induction of mitochondrial swelling in HCC model Sprague-Dawley rat hepatocyte at 10 to 40 uM", "assay_type": "functional"}, "Hepatocyte [10]": {"system": "Hepatocyte", "assay": "Induction of apoptosis in isolated HCC model Sprague-Dawley rat hepatocytes assessed as increase in caspase 3 activity at 12 uM relative to control", "assay_type": "functional"}, "Hepatocyte [11]": {"system": "Hepatocyte", "assay": "Induction of apoptosis in isolated HCC model Sprague-Dawley rat hepatocytes assessed as increase in cytochrome C release at 20 uM in presence of BHT by ELISA", "assay_type": "functional, cell-based"}, "[12]": {"assay": "Induction of mitochondrial swelling in Sprague-Dawley rat hepatocyte at 10 to 40 uM", "conditions": "hepatocytes"}},
  "note": "The source made the active and inactive calls. The rule behind the calls is not given here.",
  "data": [
    {"smiles": "O=c1cc(-c2ccccc2)oc2cc(O)cc(O)c12", "note": "[CHRYSIN]", "values": [
      {"measurement": "Activity", "setting": "Rattus norvegicus [1]", "result": "Active"},
      {"measurement": "Activity", "setting": "[2]", "result": "Non-Toxic"},
      {"measurement": "Activity", "setting": "Rattus norvegicus [3]", "result": "Active"},
      {"measurement": "fold change (FC)", "setting": "Hepatocyte [4]", "result": 1.6},
      {"measurement": "Activity", "setting": "Hepatocyte [5]", "result": "inactive"},
      {"measurement": "inhibition", "setting": "[6]", "result": "Active"},
      {"measurement": "Activity", "setting": "[7]", "result": "Non-Toxic"},
      {"measurement": "Activity", "setting": "[8]", "result": "Non-Toxic"},
      {"measurement": "Activity", "setting": "Rattus norvegicus [9]", "result": "Active"},
      {"measurement": "fold change (FC)", "setting": "Hepatocyte [10]", "result": 2.4},
      {"measurement": "Activity", "setting": "Hepatocyte [11]", "result": "inactive"},
      {"measurement": "Activity", "setting": "[12]", "result": "Non-Toxic"}
    ]}
  ]
}
